The test has as its target T1, human Farnesoid X Receptor (FXR) ligand binding domain (GST-FXR LBD) (Homo sapiens, UniProt Q96RI1).
T1 construct: purchased Invitrogen
T1 sequence (Q96RI1 193-472 isoform Q96RI1-2): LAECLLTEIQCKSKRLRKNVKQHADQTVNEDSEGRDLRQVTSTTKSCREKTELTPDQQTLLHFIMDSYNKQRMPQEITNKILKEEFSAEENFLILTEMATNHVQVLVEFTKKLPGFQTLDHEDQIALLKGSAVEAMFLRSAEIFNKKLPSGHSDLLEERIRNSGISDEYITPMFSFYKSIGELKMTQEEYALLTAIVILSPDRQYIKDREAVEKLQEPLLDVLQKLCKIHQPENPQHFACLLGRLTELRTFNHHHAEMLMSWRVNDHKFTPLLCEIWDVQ
Briefly: Human GST-FXR LBD co-activator interaction assay (HTRF). In kind it is biochemical. The note with it: GST-FXR LBD / biotin-SRC-1 peptide FRET; response relative to GW4064; read-out: FXR Co-activator interaction assay (EC50). The essentials:
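FRET (HTRF) read-out of ligand-induced binding between GST-FXR LBD and an SRC-1 peptide, detected with anti-GST cryptate and streptavidin-XL665 in buffer with 50 mM KF. Response % was normalized to DMSO and to the maximal GW4064 response. EC50 came from a four-parameter fit.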
For orientation: In TR-FRET formats the signal depends on donor and acceptor labels being close together.
The EC50 is the concentration needed to bring the measured effect to its halfway point. On to `Cc1ccccc1-c1noc(C2CC2)c1COC1CC2CC[C@@H](C1)N2c1nc2c(F)cc(C(=O)O)cc2s1` (some centres unmarked) [Example 30-1], for which the EC50 was found to be 0.3 nM.

Regarding `Cc1ccccc1-c1noc(C2CC2)c1CO[C@H]1C[C@H]2CC[C@@H](C1)N2c1ccc(C(=O)O)cn1` [Example 30-2], the EC50 was 10 nM.

As to `Cc1cc(C(=O)O)nc(N2C3CC[C@H]2CC(OCc2c(-c4ccccc4C)noc2C2CC2)C3)n1` (some centres unmarked) [Example 30-3], the EC50 was determined as 15 nM.

On to `Cc1ccccc1-c1noc(C2CC2)c1CO[C@H]1C[C@H]2CC[C@@H](C1)N2c1nc2ccc(C(=O)O)cc2s1` [Example 30-4], for which the EC50 is 0.7 nM.

For `COc1cc(C(=O)O)cc2sc(N3C4CC[C@H]3CC(OCc3c(-c5ccccc5C)noc3C3CC3)C4)nc12` (some centres unmarked) [Example 30-5], the EC50 was 0.4 nM.

On to `O=C(O)c1ccc2nc(N3[C@@H]4CC[C@H]3C[C@@H](OCc3c(-c5ccc(F)cc5)noc3C3CC3)C4)sc2c1` [Example 30-6], for which the EC50 was 42 nM.

For the compound `COc1cc(C(=O)O)cc2sc(N3C4CC[C@H]3CC(OCc3c(-c5ccc(F)cc5)noc3C3CC3)C4)nc12` (some centres unmarked) [Example 30-7], the 50% effective concentration (EC50) is 18 nM.

`COc1cc(C(=O)O)cc2sc(N3[C@@H]4CC[C@H]3C[C@@H](OCc3c(-c5cccc(F)c5)noc3C3CC3)C4)nc12` [Example 30-8]: the EC50 was found to be 21 nM.

In the case of `O=C(O)c1ccc(N2[C@@H]3CC[C@H]2C[C@@H](OCc2c(-c4cccc(F)c4)noc2C2CC2)C3)nc1` [Example 30-9], the concentration for a half-maximal effect (EC50) was determined as 340 nM.

Consider `Cc1cc(C(=O)O)nc(N2C3CC[C@H]2CC(OCc2c(-c4cccc(F)c4)noc2C2CC2)C3)n1` (some centres unmarked) [Example 30-10], for which the EC50 amounted to 480 nM.

`COc1cc(C(=O)O)cc2sc(N3C4CC[C@H]3CC(OCc3c(-c5c(C)cccc5F)noc3C3CC3)C4)nc12` (some centres unmarked) [Example 30-11]: the half-maximal effective concentration (EC50) amounted to 0.3 nM.

Regarding `Cc1cccc(F)c1-c1noc(C2CC2)c1COC1CC2CC[C@@H](C1)N2c1ccc(C(=O)O)cn1` (some centres unmarked) [Example 30-12], the half-maximal effective concentration (EC50) is 5 nM.

Turning to `Cc1cc(C(=O)O)nc(N2[C@@H]3CC[C@H]2C[C@@H](OCc2c(-c4c(C)cccc4F)noc2C2CC2)C3)n1` [Example 30-13], the EC50 was 6 nM.

Turning to `COc1cc(C(=O)O)cc2sc(N3C4CC[C@H]3CC(OCc3c(-c5c(C)cccc5C)noc3C3CC3)C4)nc12` (some centres unmarked) [Example 30-14], the concentration giving a half-maximal response (EC50) stood at 1.2 nM.

Turning to `Cc1cccc(C)c1-c1noc(C2CC2)c1COC1CC2CC[C@@H](C1)N2c1ccc(C(=O)O)cn1` (some centres unmarked) [Example 30-15], the 50% effective concentration (EC50) turned out to be 9 nM.

On to `Cc1cc(C(=O)O)nc(N2C3CC[C@H]2CC(OCc2c(-c4c(C)cccc4C)noc2C2CC2)C3)n1` (some centres unmarked) [Example 30-16], for which the EC50 was determined as 24 nM.

As for `COc1cc(C(=O)O)cc2sc(N3C4CC[C@H]3CC(OCc3c(-c5c(F)cccc5Cl)noc3C3CC3)C4)nc12` (some centres unmarked) [Example 30-17], the concentration for a half-maximal effect (EC50) stood at 0.7 nM.

With `O=C(O)c1ccc(N2[C@@H]3CC[C@H]2C[C@@H](OCc2c(-c4c(F)cccc4Cl)noc2C2CC2)C3)nc1` [Example 30-18], the EC50 amounted to 6 nM.

For the compound `Cc1cc(C(=O)O)nc(N2C3CC[C@H]2CC(OCc2c(-c4c(F)cccc4Cl)noc2C2CC2)C3)n1` (some centres unmarked) [Example 30-19], the EC50 was 23 nM.

For `COc1cc(C(=O)O)cc2sc(N3[C@@H]4CC[C@H]3C[C@@H](OCc3c(-c5ccccc5Cl)noc3C3CC3)C4)nc12` [Example 30-20], the EC50 came out at 0.74 nM.

In the case of `O=C(O)c1ccc(N2C3CC[C@H]2CC(OCc2c(-c4ccccc4Cl)noc2C2CC2)C3)nc1` (some centres unmarked) [Example 30-21], the half-maximal effective concentration (EC50) was found to be 3 nM.

As for `Cc1cc(C(=O)O)nc(N2C3CC[C@H]2CC(OCc2c(-c4ccccc4Cl)noc2C2CC2)C3)n1` (some centres unmarked) [Example 30-22], the EC50 worked out at 19 nM.

With `O=C(O)c1cc(F)c2nc(N3[C@@H]4CC[C@H]3C[C@@H](OCc3c(-c5ccccc5C5CC5)noc3C3CC3)C4)sc2c1` [Example 30-23], the 50% effective concentration (EC50) is 0.4 nM.

Turning to `O=C(O)c1ccc(N2[C@@H]3CC[C@H]2C[C@@H](OCc2c(-c4ccccc4C4CC4)noc2C2CC2)C3)nc1` [Example 30-24], the EC50 amounted to 4 nM.

Consider `Cc1cc(C(=O)O)cnc1N1[C@@H]2CC[C@H]1C[C@@H](OCc1c(-c3c(F)cccc3F)noc1C1CC1)C2` [Example 30-25], for which the EC50 stood at 3 nM.

On to `Cc1cc(N2C3CC[C@H]2CC(OCc2c(-c4c(F)cccc4F)noc2C2CC2)C3)ncc1C(=O)O` (some centres unmarked) [Example 30-26], for which the EC50 came out at 7 nM.

As for `O=C(O)c1cccc(N2[C@@H]3CC[C@H]2C[C@@H](OCc2c(-c4ccccc4OC(F)F)noc2C2CC2)C3)n1` [Example 30-27], the EC50 was determined as 7 nM.

`COC(=O)c1cc(C)c2nc(N3C4CC[C@H]3CC(OCc3c(-c5ccccc5OC(F)(F)F)noc3C3CC3)C4)sc2c1` (some centres unmarked) [Example 30-28]: the half-maximal effective concentration (EC50) turned out to be 12 nM.

Regarding `Cc1cc(C(=O)O)cc2sc(N3C4CC[C@H]3CC(OCc3c(-c5ccccc5OC(F)(F)F)noc3C3CC3)C4)nc12` (some centres unmarked) [Example 30-29], the EC50 was 0.5 nM.

For the compound `COC(=O)c1cc(C)c2nc(N3C4CC[C@H]3CC(OCc3c(-c5ccccc5C(F)(F)F)noc3C3CC3)C4)sc2c1` (some centres unmarked) [Example 30-30], the concentration for a half-maximal effect (EC50) was 120 nM.

For the compound `Cc1cc(C(=O)O)cc2sc(N3C4CC[C@H]3CC(OCc3c(-c5ccccc5C(F)(F)F)noc3C3CC3)C4)nc12` (some centres unmarked) [Example 30-31], the 50% effective concentration (EC50) worked out at 7 nM.

On to `COC(=O)c1cc(C)c2nc(N3[C@@H]4CC[C@H]3C[C@@H](OCc3c(-c5c(F)cccc5F)noc3C3CC3)C4)sc2c1` [Example 30-32], for which the EC50 turned out to be 149 nM.

As for `Cc1cc(C(=O)O)cc2sc(N3C4CC[C@H]3CC(OCc3c(-c5c(F)cccc5F)noc3C3CC3)C4)nc12` (some centres unmarked) [Example 30-33], the concentration giving a half-maximal response (EC50) is 0.7 nM.

On to `Cc1cc(C(=O)O)cc2sc(N3C4CC[C@H]3CC(OCc3c(-c5ccccc5F)noc3C3CC3)C4)nc12` (some centres unmarked) [Example 30-34], for which the EC50 was 1.8 nM.

`Cc1cc(C(=O)O)cc2sc(N3C4CC[C@H]3CC(OCc3c(-c5ccc(F)cc5)noc3C3CC3)C4)nc12` (some centres unmarked) [Example 30-35]: the 50% effective concentration (EC50) is 46 nM.

Consider `Cc1ccccc1-c1noc(C2CC2)c1COC1CC2CC[C@@H](C1)N2c1nc2c(C)cc(C(=O)O)cc2s1` (some centres unmarked) [Example 30-36], for which the concentration for a half-maximal effect (EC50) was determined as 1.1 nM.

Turning to `COC(=O)c1cc(C)c2nc(N3C4CC[C@H]3CC(OCc3c(-c5ccccc5C)noc3C3CC3)C4)sc2c1` (some centres unmarked) [Example 30-37], the concentration giving a half-maximal response (EC50) was 140 nM.

In the case of `Cc1cc(C(=O)O)cc2sc(N3[C@@H]4CC[C@H]3C[C@@H](OCc3c(-c5ccc(F)cc5F)noc3C3CC3)C4)nc12` [Example 30-38], the EC50 stood at 1.8 nM.

As to `COC(=O)c1cc(Br)c2nc(N3C4CC[C@H]3CC(OCc3c(-c5ccccc5OC(F)(F)F)noc3C3CC3)C4)sc2c1` (some centres unmarked) [Example 30-39], the EC50 is 36 nM.

In the case of `O=C(O)c1cc(Br)c2nc(N3C4CC[C@H]3CC(OCc3c(-c5ccccc5OC(F)(F)F)noc3C3CC3)C4)sc2c1` (some centres unmarked) [Example 30-40], the EC50 stood at 0.7 nM.

Consider `O=C(O)c1cc(C2CC2)nc(N2C3CC[C@H]2CC(OCc2c(-c4ccccc4OC(F)F)noc2C2CC2)C3)n1` (some centres unmarked) [Example 30-41], for which the concentration for a half-maximal effect (EC50) was determined as 4 nM.

For `O=C(O)c1cc(C2CC2)nc(N2C3CC[C@H]2CC(OCc2c(-c4ccccc4OC(F)(F)F)noc2C2CC2)C3)n1` (some centres unmarked) [Example 30-42], the EC50 came out at 3 nM.

Turning to `O=C(O)c1cc(C2CC2)nc(N2C3CC[C@H]2CC(OCc2c(-c4ccccc4C(F)(F)F)noc2C2CC2)C3)n1` (some centres unmarked) [Example 30-43], the EC50 is 4.6 nM.

For the compound `Cc1nc(N2C3CC[C@H]2CC(OCc2c(-c4ccccc4OC(F)(F)F)noc2C2CC2)C3)ccc1C(=O)O` (some centres unmarked) [Example 30-44], the EC50 is 8 nM.

Turning to `Cc1nc(N2C3CC[C@H]2CC(OCc2c(-c4ccccc4C(F)(F)F)noc2C2CC2)C3)ccc1C(=O)O` (some centres unmarked) [Example 30-45], the EC50 was determined as 18 nM.

Consider `Cc1ccccc1-c1noc(C2CC2)c1CO[C@H]1C[C@H]2CC[C@@H](C1)N2c1ccc(C(=O)O)c(C)n1` [Example 30-46], for which the EC50 turned out to be 220 nM.

In the case of `Cc1nc(N2[C@@H]3CC[C@H]2C[C@@H](OCc2c(-c4c(F)cccc4F)noc2C2CC2)C3)ccc1C(=O)O` [Example 30-47], the EC50 amounted to 120 nM.

Consider `Cc1nc(N2[C@@H]3CC[C@H]2C[C@@H](OCc2c(-c4ccccc4F)noc2C2CC2)C3)ccc1C(=O)O` [Example 30-48], for which the concentration giving a half-maximal response (EC50) came out at 34 nM.

Regarding `Cc1cccc(C)c1-c1noc(C2CC2)c1COC1CC2CC[C@@H](C1)N2c1ccc(C(=O)O)c(C)n1` (some centres unmarked) [Example 30-49], the EC50 came out at 140 nM.

Consider `Cc1nc(N2[C@@H]3CC[C@H]2C[C@@H](OCc2c(-c4cccc(F)c4)noc2C2CC2)C3)ccc1C(=O)O` [Example 30-50], for which the half-maximal effective concentration (EC50) is 700 nM.

Turning to `Cc1cccc(F)c1-c1noc(C2CC2)c1CO[C@H]1C[C@H]2CC[C@@H](C1)N2c1ccc(C(=O)O)c(C)n1` [Example 30-51], the concentration giving a half-maximal response (EC50) was 52 nM.

As to `Cc1nc(N2C3CC[C@H]2CC(OCc2c(-c4c(F)cccc4Cl)noc2C2CC2)C3)ccc1C(=O)O` (some centres unmarked) [Example 30-52], the EC50 was 26 nM.

With `O=C(O)c1ccc2nc(N3C4CC[C@H]3CC(OCc3c(-c5ccccc5OC(F)(F)F)noc3C3CC3)C4)ccc2c1` (some centres unmarked) [Example 30-53], the EC50 came to 1 nM.

Take `O=C(O)c1ccc2nc(N3C4CC[C@H]3CC(OCc3c(-c5ccccc5C(F)(F)F)noc3C3CC3)C4)ccc2c1` (some centres unmarked) [Example 30-54]: the EC50 is 16 nM.

Consider `O=C(O)c1cccc2nc(N3C4CC[C@H]3CC(OCc3c(-c5ccccc5OC(F)(F)F)noc3C3CC3)C4)ccc12` (some centres unmarked) [Example 30-55], for which the EC50 amounted to 1 nM.

As for `O=C(O)c1ccc2c(N3C4CC[C@H]3CC(OCc3c(-c5ccccc5OC(F)(F)F)noc3C3CC3)C4)ncnc2c1` (some centres unmarked) [Example 30-56], the EC50 stood at 5.7 nM.

Source of the values: patent publication US9150568B2, “Compositions and methods for modulating FXR” (NOVARTIS AG, priority 2010, dated 2015).
